# ChEMBL document CHEMBL1201862, “PubChem BioAssay data set” (2004)
# Calls of active or inactive are those of the source.
# Key:
# Large T antigen = Large T antigen (Simian virus 40, UniProt P03070); format: functional, Betapolyomavirus macacae;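 note: Confirmatory-stage PubChem screen for compounds that inhibit SV40 T antigen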
# [1] = biological target: T1, Type-1 angiotensin II receptor (Homo sapiens, UniProt P30556); test: antagonism of angiotensin II type 1 receptor – cell-based, uHTS hits, selectivity assay for APJ receptor antagonist project, dose response (AID 463214); format: functional;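 note: antagonist potency against angiotensin II stimulated AT1 response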
# T1 sequence (P30556 whole entry): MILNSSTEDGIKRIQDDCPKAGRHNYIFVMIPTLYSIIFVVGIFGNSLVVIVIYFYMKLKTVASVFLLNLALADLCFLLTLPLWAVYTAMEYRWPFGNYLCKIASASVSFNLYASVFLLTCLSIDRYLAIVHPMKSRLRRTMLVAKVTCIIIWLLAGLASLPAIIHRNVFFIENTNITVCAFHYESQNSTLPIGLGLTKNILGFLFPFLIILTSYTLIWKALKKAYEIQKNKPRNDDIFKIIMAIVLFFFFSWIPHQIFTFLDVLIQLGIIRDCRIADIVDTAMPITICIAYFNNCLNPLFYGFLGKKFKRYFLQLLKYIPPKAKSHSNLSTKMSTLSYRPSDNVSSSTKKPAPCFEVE
# INS1 = test: INS-1E survival protection against cytokine death – cell-based, luminescence, retest, dose response (AID 449756); format: functional; conditions: Rattus norvegicus;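 note: cell death triggered by IL-1 beta plus TNF-alpha plus IFN-gamma mixture; protective hits raise ATP signal compared with cytokine alone wells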
# [2] = cAMP pathway inhibition in counterscreen cell line – TR-FRET cAMP detection, counter-screen for MC4R biased antagonist project, dose response (AID 602305); format: functional, cell-based;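 note: U2OS cells stimulated with forskolin near its EC80 as the cAMP inducer; potency is for inhibition of forskolin-stimulated cAMP signaling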
# [3] = NIH3T3 cell viability loss – ATP luminescence, mouse fibroblasts, counter-screen, dose response (AID 2010); format: functional, cell-based;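 note: cells exposed to compound for about 90 hours before reading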
# [4] = loss of viability in HepG2 cells – cell-based, CellTiter-Glo, cherry-picked, cytotoxicity control for Shn3 inhibitor project, dose response (AID 624134); format: functional
# Beta-galactosidase = Beta-galactosidase (Escherichia coli, UniProt Q8VNN2); test: PubChem AID 485352; format: functional
# Sequence of Beta-galactosidase (Q8VNN2 whole entry): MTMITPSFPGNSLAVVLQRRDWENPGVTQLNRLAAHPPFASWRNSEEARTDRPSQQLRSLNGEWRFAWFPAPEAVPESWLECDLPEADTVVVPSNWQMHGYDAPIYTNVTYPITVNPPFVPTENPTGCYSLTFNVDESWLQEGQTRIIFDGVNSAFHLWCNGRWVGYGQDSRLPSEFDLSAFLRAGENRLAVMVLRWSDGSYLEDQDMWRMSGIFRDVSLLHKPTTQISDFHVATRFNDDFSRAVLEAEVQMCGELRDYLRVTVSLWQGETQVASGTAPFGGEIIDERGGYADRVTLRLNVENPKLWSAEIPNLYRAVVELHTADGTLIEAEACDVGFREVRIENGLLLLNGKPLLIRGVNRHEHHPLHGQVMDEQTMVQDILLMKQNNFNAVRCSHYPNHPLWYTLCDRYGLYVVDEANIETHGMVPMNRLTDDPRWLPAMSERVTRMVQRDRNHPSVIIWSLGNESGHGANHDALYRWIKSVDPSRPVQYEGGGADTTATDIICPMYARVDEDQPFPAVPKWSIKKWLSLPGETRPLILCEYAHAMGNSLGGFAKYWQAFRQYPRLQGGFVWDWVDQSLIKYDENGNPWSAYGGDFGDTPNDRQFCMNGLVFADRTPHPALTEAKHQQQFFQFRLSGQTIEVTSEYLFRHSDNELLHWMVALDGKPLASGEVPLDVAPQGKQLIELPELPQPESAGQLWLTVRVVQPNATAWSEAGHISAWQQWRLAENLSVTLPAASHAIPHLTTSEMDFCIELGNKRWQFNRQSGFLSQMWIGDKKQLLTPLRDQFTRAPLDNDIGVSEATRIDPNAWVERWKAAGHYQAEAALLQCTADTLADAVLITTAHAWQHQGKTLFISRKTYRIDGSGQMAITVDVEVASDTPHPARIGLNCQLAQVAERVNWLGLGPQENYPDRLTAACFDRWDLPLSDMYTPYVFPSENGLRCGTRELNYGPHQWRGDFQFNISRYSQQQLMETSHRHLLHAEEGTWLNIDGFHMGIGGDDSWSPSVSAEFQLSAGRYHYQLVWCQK
# Paired box protein Pax-8 = Paired box protein Pax-8 (Homo sapiens, UniProt Q06710); test: PAX8 transcriptional activity inhibition in RMG-I – RMG-I cells, luciferase, cherry-pick, dose response (AID 687027); format: functional, cell-based;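 note: luciferase reporter driven by Pax8 target thyroperoxidase promoter measured by SteadyGlo luminescence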
# Sequence of Paired box protein Pax-8 (Q06710 whole entry): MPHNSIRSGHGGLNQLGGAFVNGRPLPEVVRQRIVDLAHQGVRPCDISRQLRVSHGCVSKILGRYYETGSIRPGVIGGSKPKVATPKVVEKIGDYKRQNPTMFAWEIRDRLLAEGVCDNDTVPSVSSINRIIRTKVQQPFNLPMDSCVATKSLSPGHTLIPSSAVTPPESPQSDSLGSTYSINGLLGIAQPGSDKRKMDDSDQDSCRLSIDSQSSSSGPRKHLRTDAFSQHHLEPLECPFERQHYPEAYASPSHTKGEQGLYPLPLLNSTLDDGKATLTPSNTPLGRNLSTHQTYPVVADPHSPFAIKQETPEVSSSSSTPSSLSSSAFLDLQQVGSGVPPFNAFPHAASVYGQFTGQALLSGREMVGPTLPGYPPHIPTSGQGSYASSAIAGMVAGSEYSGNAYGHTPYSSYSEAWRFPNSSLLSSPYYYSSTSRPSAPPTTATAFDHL
# [5] = Trypanosoma cruzi growth suppression in host cells – NIH3T3 host cells, beta-gal luminescence, confirmation (AID 2044); format: functional, cell-based;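 note: intracellular parasites grown in NIH/3T3 mouse fibroblasts as host cells; luminescent beta-galactosidase reporter signal from transgenic T. cruzi replicating inside host cells; inhibitors lower the luminescence signal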
# Melanocortin receptor 4 = Melanocortin receptor 4 (Homo sapiens, UniProt P32245); test: inhibitors of MC4R cAMP signaling – cell-based, TR-FRET, biased antagonists, dose response (AID 602298); format: functional;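 note: antagonist potency against agonist-stimulated cAMP production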
# Sequence of Melanocortin receptor 4 (P32245 whole entry): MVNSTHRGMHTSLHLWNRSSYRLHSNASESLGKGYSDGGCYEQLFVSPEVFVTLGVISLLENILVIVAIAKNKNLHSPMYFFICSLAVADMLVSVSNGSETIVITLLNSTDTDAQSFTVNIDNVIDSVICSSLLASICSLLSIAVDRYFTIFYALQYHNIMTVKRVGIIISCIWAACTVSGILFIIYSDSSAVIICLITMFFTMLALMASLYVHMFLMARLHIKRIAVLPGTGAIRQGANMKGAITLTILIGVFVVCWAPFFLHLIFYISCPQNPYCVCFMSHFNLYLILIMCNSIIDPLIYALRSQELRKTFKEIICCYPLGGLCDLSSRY
# [6] = reduction of Shn3 3'UTR-driven luciferase in osteoblasts – cell-based, Clone20 osteoblasts, firefly luciferase, cherry-picked, dose response (AID 624132); format: functional;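 note: firefly luciferase luminescence from reporter carrying the Shn3 3'UTR in osteoblasts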
# [7] = non-specific 3'UTR reporter inhibition in Clone20-Shn3RL – cell-based, Renilla luciferase, cherry-picked, counter-screen for Shn3 inhibitor project, dose response (AID 624133); format: functional
# Streptokinase A = biological target: T2, Streptokinase A (Streptococcus pyogenes serotype M1, UniProt P10520); test: viability-normalized secreted streptokinase activity reduction – plasminogen activation absorbance, OD405, dose response (AID 1914); format: functional, Streptococcus pyogenes M1 GAS;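 note: secreted streptokinase activity via plasminogen activation per viability signal from cell pellet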
# T2 sequence (P10520 whole entry): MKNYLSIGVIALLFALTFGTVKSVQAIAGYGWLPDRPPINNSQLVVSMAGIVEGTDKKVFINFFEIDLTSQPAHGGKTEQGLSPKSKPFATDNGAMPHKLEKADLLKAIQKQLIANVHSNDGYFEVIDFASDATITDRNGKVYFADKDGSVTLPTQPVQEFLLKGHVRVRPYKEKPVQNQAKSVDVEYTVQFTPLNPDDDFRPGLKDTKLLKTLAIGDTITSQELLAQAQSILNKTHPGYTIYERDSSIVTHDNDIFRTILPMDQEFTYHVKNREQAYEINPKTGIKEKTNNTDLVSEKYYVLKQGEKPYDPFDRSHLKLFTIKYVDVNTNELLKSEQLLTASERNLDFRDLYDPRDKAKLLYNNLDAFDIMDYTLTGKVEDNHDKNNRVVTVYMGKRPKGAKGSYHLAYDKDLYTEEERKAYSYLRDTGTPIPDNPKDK
# [8] = system: Streptococcus sp. 'group A'; test: Streptococcus pyogenes SK(-)GAS viability under kanamycin – luminescence, BacTiterGlo, confirmation, counter-screen for streptokinase expression inhibitor project, dose response (AID 1900); format: functional, organism-based
# Streptococcus = test: GAS UMAA2166 growth inhibition – luminescence, BacTiterGlo, counter-screen for streptokinase expression inhibitor project, dose response (AID 1915); format: functional, organism-based;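 note: potency for reduction of bacterial viability or growth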
# [9] = viability of HCT116 lacking mutant beta-catenin – cell-based, human colon tumor, dose response (AID 1045); format: functional;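 note: HCT116 colon tumor cells with beta catenin knocked out; cells exposed to compound for 60 hours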
# [10] = viability of PTEN-deleted HCT116 cells – cell-based, HCT116 PTEN knockout, dose response (AID 1047); format: functional;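 note: HCT116 colon tumor cells with PTEN knocked out; cells exposed to compound for 60 hours before readout; potency for loss of cell viability measured by luminescence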
# [11] = biological target: T3, Replicative DNA helicase DnaB (Mycobacterium tuberculosis, UniProt P9WMR3); test: DnaB intein splicing inhibitors, dose response, biochemical, cell-free fluorescence (AID 449749); format: functional
# T3 sequence (P9WMR3 whole entry): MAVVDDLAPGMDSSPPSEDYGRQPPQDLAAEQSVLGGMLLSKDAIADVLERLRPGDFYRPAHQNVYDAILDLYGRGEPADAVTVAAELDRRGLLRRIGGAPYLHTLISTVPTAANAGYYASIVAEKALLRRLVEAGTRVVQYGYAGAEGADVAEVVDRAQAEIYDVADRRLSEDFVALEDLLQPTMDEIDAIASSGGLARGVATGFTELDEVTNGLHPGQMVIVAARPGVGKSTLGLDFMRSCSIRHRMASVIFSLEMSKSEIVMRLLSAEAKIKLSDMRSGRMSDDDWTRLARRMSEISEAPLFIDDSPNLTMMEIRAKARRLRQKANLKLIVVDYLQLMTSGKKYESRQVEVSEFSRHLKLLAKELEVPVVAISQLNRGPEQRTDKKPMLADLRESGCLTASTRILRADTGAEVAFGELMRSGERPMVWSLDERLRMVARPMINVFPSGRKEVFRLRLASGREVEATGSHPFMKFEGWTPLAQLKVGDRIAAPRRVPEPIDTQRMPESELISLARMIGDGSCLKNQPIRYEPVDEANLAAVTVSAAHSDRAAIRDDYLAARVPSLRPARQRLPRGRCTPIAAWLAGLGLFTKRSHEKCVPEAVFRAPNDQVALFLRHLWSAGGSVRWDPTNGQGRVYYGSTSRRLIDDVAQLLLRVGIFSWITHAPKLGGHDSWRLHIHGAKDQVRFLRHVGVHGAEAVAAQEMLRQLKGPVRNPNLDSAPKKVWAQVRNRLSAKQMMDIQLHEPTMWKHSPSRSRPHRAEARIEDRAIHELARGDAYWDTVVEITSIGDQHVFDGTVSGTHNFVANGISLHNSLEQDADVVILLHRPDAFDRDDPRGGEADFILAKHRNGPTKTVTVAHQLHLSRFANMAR
# [12] = biological target: T4, High affinity choline transporter 1 (Homo sapiens, UniProt Q9GZV3); test: human choline transporter potentiators, potency – cell-based, 10-point CRC, membrane potential dye, dose response (AID 602376); format: functional
# T4 sequence (Q9GZV3 whole entry): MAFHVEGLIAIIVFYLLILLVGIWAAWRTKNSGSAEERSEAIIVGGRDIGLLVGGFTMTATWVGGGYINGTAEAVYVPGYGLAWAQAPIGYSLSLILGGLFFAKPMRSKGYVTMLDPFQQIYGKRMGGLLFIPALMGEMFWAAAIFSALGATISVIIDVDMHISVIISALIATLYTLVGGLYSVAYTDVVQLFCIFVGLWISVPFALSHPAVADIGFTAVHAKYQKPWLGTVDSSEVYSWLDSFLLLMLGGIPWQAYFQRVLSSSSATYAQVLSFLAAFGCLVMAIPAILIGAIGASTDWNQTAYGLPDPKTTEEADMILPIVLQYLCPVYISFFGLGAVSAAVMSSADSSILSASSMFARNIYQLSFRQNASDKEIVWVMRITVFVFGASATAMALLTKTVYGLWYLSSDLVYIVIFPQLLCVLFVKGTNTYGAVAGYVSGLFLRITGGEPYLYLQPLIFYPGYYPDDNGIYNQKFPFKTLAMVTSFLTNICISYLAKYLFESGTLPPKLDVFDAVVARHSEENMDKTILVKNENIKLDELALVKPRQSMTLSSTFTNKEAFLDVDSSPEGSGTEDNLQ
# [13] = general cell-killing toxicity readout – plate reader, dry powder samples, cytotoxicity control for PAX8 inhibitor project, dose response (AID 743021); format: functional, cell-based
# Protein RecA = biological target: T5, Protein RecA (Mycobacterium tuberculosis, UniProt P9WHJ3); test: Fluorescence Cell-Free Homogeneous Dose Retest to Identify Inhibitors of RecA-Intein Splicing Activity. [Related pubchem assays (depositor defined):AID2097, AID2223, AID489010, AID492950]; format: functional
# T5 sequence (P9WHJ3 whole entry): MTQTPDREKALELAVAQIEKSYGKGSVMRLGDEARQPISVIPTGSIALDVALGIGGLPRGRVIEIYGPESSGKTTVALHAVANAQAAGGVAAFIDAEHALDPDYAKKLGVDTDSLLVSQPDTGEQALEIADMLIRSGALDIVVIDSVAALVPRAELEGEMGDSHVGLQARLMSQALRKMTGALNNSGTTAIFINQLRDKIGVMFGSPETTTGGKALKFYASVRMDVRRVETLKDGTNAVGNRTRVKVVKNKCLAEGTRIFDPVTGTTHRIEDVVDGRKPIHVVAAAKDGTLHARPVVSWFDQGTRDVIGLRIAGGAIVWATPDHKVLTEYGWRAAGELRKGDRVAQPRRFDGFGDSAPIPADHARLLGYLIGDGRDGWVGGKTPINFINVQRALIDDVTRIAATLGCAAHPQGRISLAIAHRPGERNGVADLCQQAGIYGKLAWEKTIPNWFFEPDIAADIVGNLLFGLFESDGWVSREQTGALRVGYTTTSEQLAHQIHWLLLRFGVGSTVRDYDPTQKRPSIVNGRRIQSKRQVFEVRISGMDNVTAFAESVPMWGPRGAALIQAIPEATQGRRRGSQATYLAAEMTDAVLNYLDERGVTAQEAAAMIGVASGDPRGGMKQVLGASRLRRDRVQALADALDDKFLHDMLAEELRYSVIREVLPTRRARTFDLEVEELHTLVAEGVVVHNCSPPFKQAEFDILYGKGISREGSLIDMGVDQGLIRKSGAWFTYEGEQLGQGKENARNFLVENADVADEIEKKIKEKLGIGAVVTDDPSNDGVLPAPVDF
# [14] = Intein inhibitors as potential Tuberculosis drugs, a cytotoxicity screen. [Related pubchem assays (depositor defined):AID2221, AID2223, AID434968, AID435010, AID449749, AID449750, AID489010]; format: functional
# [15] = A Cell Based Secondary Assay To Explore Cytotoxicity of Compounds that Sensitize Mycobacterium Tuberculosis to Beta-Lactam Antibiotics.; format: functional
# [16] = biological target: Tyrosine-protein phosphatase non-receptor type 5 (Homo sapiens, UniProt P54829); test: PTPN5 enzyme inhibition – biochemical, fluorescence intensity, uHTS hits, confirmation (AID 602372); format: functional; conditions: read-out: IC50_Mean
# Sequence of Tyrosine-protein phosphatase non-receptor type 5 (P54829 whole entry): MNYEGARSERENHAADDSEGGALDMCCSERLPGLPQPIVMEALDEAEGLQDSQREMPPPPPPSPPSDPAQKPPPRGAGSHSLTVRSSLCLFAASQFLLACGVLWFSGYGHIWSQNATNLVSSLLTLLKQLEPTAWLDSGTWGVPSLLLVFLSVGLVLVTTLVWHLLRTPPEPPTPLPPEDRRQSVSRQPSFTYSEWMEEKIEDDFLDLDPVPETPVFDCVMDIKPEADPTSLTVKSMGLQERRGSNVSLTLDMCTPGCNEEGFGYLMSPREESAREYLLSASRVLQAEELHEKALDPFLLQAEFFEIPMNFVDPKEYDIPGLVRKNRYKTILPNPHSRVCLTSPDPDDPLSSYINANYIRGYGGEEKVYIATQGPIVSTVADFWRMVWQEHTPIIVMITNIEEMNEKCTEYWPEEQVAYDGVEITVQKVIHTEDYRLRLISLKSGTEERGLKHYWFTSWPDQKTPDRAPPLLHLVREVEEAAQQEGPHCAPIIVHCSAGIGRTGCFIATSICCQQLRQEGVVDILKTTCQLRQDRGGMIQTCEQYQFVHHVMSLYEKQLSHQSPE
# Caspase-6 = biological target: T6, Caspase-6 (Homo sapiens, UniProt P55212); test: inhibition of CASP6 peptide cleavage – biochemical, VEID-R110 fluorescence, cherry-pick, dose response (AID 720632)
# T6 sequence (P55212 whole entry): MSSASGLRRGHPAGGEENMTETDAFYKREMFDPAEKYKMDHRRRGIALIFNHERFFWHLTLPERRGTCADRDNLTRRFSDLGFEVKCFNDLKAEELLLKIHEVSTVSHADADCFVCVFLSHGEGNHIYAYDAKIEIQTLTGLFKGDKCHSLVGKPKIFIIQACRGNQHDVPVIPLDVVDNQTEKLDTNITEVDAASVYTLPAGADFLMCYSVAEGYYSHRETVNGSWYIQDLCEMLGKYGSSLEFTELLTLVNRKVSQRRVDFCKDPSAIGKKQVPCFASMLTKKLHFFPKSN
# [17] = biological target: Dual specificity protein phosphatase 3 (Homo sapiens, UniProt P51452); test: VHR phosphatase inhibition, dose response, selectivity assay for STEP inhibitor project, biochemical (AID 602374); format: functional; conditions: read-out: IC50_Mean
# Sequence of Dual specificity protein phosphatase 3 (P51452 whole entry): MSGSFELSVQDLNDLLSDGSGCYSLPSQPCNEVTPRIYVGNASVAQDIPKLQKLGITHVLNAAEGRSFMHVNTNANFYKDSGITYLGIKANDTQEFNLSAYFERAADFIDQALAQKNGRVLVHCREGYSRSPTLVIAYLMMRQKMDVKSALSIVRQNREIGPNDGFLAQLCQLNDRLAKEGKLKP
# [18] = biological target: Tyrosine-protein phosphatase non-receptor type 11 (Homo sapiens, UniProt Q06124); test: PTPN11 enzyme inhibitors – biochemical, selectivity assay for STEP inhibitor project, dose response (AID 602367); format: functional; conditions: read-out: IC50_Mean
# Sequence of Tyrosine-protein phosphatase non-receptor type 11 (Q06124 whole entry): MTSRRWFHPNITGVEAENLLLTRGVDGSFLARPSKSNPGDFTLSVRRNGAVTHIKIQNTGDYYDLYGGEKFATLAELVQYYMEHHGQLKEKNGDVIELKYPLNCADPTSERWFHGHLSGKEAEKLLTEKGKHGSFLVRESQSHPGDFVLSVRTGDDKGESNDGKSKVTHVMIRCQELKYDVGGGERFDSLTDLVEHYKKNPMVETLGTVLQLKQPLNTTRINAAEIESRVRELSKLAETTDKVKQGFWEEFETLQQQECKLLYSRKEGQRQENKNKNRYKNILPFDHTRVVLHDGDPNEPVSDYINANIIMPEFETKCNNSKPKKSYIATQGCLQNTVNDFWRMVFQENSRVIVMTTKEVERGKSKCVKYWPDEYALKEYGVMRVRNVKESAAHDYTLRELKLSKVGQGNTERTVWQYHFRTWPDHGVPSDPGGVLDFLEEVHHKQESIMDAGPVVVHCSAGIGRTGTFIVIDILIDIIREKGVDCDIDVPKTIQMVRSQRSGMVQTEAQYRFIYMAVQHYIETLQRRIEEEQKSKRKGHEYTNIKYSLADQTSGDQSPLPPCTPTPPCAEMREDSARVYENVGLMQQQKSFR
# Sequence of Large T antigen (P03070 whole entry): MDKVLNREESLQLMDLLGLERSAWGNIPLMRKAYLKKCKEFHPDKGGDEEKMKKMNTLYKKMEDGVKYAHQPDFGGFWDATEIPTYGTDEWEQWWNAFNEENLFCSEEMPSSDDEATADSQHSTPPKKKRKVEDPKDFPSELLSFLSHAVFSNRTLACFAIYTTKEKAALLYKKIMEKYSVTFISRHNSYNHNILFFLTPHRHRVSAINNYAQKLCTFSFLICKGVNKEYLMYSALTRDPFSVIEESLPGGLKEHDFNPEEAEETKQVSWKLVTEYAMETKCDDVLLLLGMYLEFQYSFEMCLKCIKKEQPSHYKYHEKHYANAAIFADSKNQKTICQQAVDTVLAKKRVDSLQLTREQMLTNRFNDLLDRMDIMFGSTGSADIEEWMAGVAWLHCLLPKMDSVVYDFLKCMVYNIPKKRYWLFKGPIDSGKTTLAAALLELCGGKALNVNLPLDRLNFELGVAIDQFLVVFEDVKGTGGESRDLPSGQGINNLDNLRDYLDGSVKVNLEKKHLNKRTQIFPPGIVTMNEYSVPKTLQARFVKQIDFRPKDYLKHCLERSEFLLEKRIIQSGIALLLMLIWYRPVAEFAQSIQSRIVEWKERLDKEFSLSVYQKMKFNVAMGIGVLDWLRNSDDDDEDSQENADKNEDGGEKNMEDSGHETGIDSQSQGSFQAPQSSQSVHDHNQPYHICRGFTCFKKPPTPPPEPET
smiles,measurement,setting,value
CCS(=O)(=O)c1ncc(Cl)c(C(=O)Nc2ccc(S(=O)(=O)N3CCCC(C)C3)cc2)n1 (stereo not given),IC50,Large T antigen,62.8 µM (active)
same,IC50,[1],2.18 µM (active)
same,AC50,INS1,4.76 µM (active)
same,IC50,[2],> 64.6 µM (inactive)
same,EC50,[3],3.48 µM (active)
same,AC50,[4],9.33 µM (active)
same,EC50,Beta-galactosidase,> 40 µM (inactive)
same,AC50,Paired box protein Pax-8,5.34 µM (active)
same,EC50,[5],2.25 µM (active)
same,IC50,Melanocortin receptor 4,> 0.797 µM (active)
same,AC50,[6],< 0.26 µM (active)
same,AC50,[7],3.95 µM (active)
COC(=O)c1cc(S(=O)(=O)n2nc(C)c(Br)c2C)c(Cl)cc1Cl,IC50,[2],> 64.6 µM (inactive)
same,EC50,Streptokinase A,> 150 µM (not active)
same,EC50,[8],1.8 µM (active)
same,EC50,Streptococcus,10.4 µM (active)
same,IC50,Melanocortin receptor 4,> 64.6 µM (inactive)
Cc1nn(-c2ccccc2)c(Cl)c1CN(C(=O)CCl)c1cccc2ccccc12,EC50,[9],2.25 µM (active)
same,EC50,[10],3.44 µM (active)
same,AC50,[11],2.28 µM (active)
same,EC50,[12],16.7 µM (active)
same,AC50,[13],11.3 µM (active)
same,AC50,Paired box protein Pax-8,9.95 µM (active)
same,EC50,Protein RecA,0.571 µM (active)
same,CC50,[14],1.81 µM (active)
same,CC50,[15],0.591 µM (active)
COC(=O)c1ccccc1CSc1nsc(/C=C/N(C)C)c1C#N,IC50,[16],14.5 µM (active)
same,AC50,Caspase-6,34.5 µM (active)
same,IC50,[17],1.29 µM (active)
same,IC50,[18],2.38 µM (active)
